Structures are written as SMILES. Some results are limits rather than exact numbers.

As usually defined, the IC50 is the concentration at which inhibition is half-maximal.

full-length human recombinant IDO1 protein, sequence (P14902 whole entry): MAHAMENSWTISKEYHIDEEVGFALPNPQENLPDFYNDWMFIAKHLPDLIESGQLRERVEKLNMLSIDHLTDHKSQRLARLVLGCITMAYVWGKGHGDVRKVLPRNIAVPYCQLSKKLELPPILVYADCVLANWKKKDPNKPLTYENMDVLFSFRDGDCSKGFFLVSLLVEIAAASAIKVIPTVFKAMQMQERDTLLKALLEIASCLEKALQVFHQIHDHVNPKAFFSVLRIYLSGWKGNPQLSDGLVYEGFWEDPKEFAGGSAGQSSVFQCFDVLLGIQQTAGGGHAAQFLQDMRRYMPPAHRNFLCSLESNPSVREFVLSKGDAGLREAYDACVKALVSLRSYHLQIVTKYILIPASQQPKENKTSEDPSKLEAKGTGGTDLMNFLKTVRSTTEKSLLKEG

The target in this test is full-length human recombinant IDO1 protein (Homo sapiens (Human), UniProt P14902). As to the kind of experiment: IDO enzyme activity inhibition testing (Ehrlich method). Format: biochemical. Particulars: OD490, 10 concentration points. As for the experimental part:
IDO Enzyme Activity Inhibition Testing
The effects of the compounds of the invention on the activity of indoleamine 2,3-dioxygenase (IDO) were evaluated by the Ehrlich method.
The experimental principle is summarized as follows: IDO1 catalyzes oxidation of tryptophan to form N-formyl kynurenine, N-formyl kynurenine is subsequently hydrolyzed by trichloroacetic acid to form kynurenine, and kynurenine further reacts with the Ehrlich reagent to make the solution yellow. The absorbance at 490 nm (OD490) is directly proportional to the activity of IDO1.
The experimental methods are summarized as follows:
The reaction buffer was 50 mM 2-(N-morpholine)ethanesulfonic acid-hydrate (Sigma, Cat. No. 69889); the full-length human recombinant IDO1 protein was purchased from the Tsinghua Protein Research Technology Center and diluted to a 33.6 ng/μL enzyme solution with the reaction buffer; the substrate solution was prepared with the reaction buffer containing 20 mM vitamin C (Sigma, Cat. No. A5960), 150 μM L-tryptophan (Sigma, Cat. No. T0254), 2250 UI/mL catalase (Sigma, Cat. No. C30), and 10 μM methylene blue (Sigma, Cat. No. 28514); the reaction termination solution was 30% (mass/volume) trichloroacetic acid (Sigma, Cat. No. T9159) aqueous solution; the Ehrlich reagent was 2% p-dimethylaminobenzaldehyde (Sigma, Cat. No. 156477) acetic acid (Macklin, Cat. No. A801295) solution.
A compound was dissolved in DMSO (Sigma, Cat. No. D5879) and diluted to 1 mM, then serially diluted 3-fold with DMSO to a minimum concentration of 50.8 nM, and each concentration was further diluted 25-fold with the reaction buffer. If a compound's IC50 value was very low, the initial concentration of the compound was decreased.
A 10-μL compound solution and a 10-μL enzyme solution were added to a 96-well plate (Sigma, Cat. No. CLS3695), mixed well and incubated at room temperature. After 15 min, a 20-μL substrate solution was added and incubated at 60° C. after mixing for 30 min. The reaction plate was equilibrated to room temperature and 60 μL of the Ehrlich reagent was added. After incubation for 15 min, OD490 of each well was measured.
In this experiment, OD490 without enzyme was referred as OD490100% inhibition, and OD490 with enzyme added but without compound was referred as OD4900% inhibition.
Where Y is the percentage of inhibition, Bottom is the bottom platform value of the S-curve, Top is the top platform value of the S-curve, X is the logarithm of the concentration of the test compound, and slope factor is the slope coefficient of the curve.
Consider `N#Cc1ccc(NC(=O)Nc2cccc3cncn23)cc1` [Compound 1, 1-(4-cyanophenyl)-3-(imidazo[1,5-a]pyridin-5-yl)urea], for which the IC50 was in the range of 250 to 1500 nM. Next, `O=C(Nc1ccc(Cl)cc1)Nc1cccc2cncn12` [Compound 3, 1-(4-chlorophenyl)-3-(imidazo[1,5-a]pyridin-5-yl)urea]: 250 to 1500 nM; `N#Cc1ccc(NC(=O)Nc2c(F)ccc3cncn23)cc1` [Compound 14, 1-(4-cyanophenyl)-3-(6-fluoroimidazo[1,5-a]pyridin-5-yl)urea]: below 250 nM. In the case of `COc1ccc2cncn2c1NC(=O)Nc1ccc(C#N)cc1` [Compound 15, 1-(4-cyanophenyl)-3-(6-methoxyimidazo[1,5-a]pyridin-5-yl)urea], the IC50 lay within 250 to 1500 nM. In the case of `CCOc1ccc2cncn2c1NC(=O)Nc1ccc(C#N)cc1` [Compound 16, 1-(4-cyanophenyl)-3-(6-ethoxyimidazo[1,5-a]pyridin-5-yl)urea], the IC50 was in the range of 250 to 1500 nM. On to `N#Cc1ccc(NC(=O)Nc2cc(Cl)cc3cncn23)cc1` [Compound 20, 1-(7-chloroimidazo[1,5-a]pyridin-5-yl)-3-(4-cyanophenyl)urea], for which the IC50 is below 250 nM.

For the compound `O=C(Nc1ccc(C(=O)O)cc1)Nc1c(-c2ccccc2)ccc2cncn12` [Compound 27, 4-(3-(6-phenylimidazo[1,5-a]pyridin-5-yl)ureido)benzoic acid], the IC50 lay within 250 to 1500 nM. On to `CNC(=O)c1ccc(NC(=O)Nc2c(-c3ccccc3)ccc3cncn23)cc1` [Compound 28, N-methyl-4-(3-(6-phenylimidazo[1,5-a]pyridin-5-yl)ureido)benzamide], for which the IC50 fell in the range of 250 to 1500 nM. In the case of `NC(=O)c1ccc(NC(=O)Nc2c(-c3ccccc3)ccc3cncn23)cc1` [Compound 29, 4-(3-(6-phenylimidazo[1,5-a]pyridin-5-yl)ureido)benzamide], the IC50 is 250 to 1500 nM. As to `O=C(Nc1ccc(C(=O)NCCO)cc1)Nc1c(-c2ccccc2)ccc2cncn12` [Compound 30, N-(2-hydroxyethyl)-4-(3-(6-phenylimidazo[1,5-a]pyridin-5-yl)ureido)benzamide], the IC50 lay in the range of 250 to 1500 nM. With `N#Cc1ccc(NC(=O)Nc2c(-c3ccccc3)ccc3cncn23)cn1` [Compound 32, 1-(6-cyanopyridin-3-yl)-3-(6-phenylimidazo[1,5-a]pyridin-5-yl)urea], the IC50 is below 250 nM. Consider `N#Cc1ccc(NC(=O)Nc2c(-c3ccccc3)ccc3cncn23)nc1` [Compound 33, 1-(5-cyanopyridin-2-yl)-3-(6-phenylimidazo[1,5-a]pyridin-5-yl)urea], for which the IC50 lay in the range of 250 to 1500 nM.

Turning to `COc1cc(NC(=O)Nc2c(-c3ccccc3)ccc3cncn23)ccc1C#N` [Compound 34, 1-(4-cyano-3-methoxyphenyl)-3-(6-phenylimidazo[1,5-a]pyridin-5-yl)urea], the IC50 is below 250 nM. As to `COc1cc(C#N)ccc1NC(=O)Nc1c(-c2ccccc2)ccc2cncn12` [Compound 35, 1-(4-cyano-2-methoxyphenyl)-3-(6-phenylimidazo[1,5-a]pyridin-5-yl)urea], the IC50 was below 250 nM. `N#Cc1ccc(NC(=O)Cc2c(-c3ccccc3)ccc3cncn23)c(CO)c1` [Compound 40, N-(4-cyano-2-(hydroxymethyl)phenyl)-2-(6-phenylimidazo[1,5-a]pyridin-5-yl)acetamide]: the IC50 lay in the range of 250 to 1500 nM. Next, `N#Cc1ccc(NC(=O)Cc2cc(Cl)cc3cncn23)cc1` [Compound 41, 2-(7-chloroimidazo[1,5-a]pyridin-5-yl)-N-(4-cyanophenyl)acetamide]: below 250 nM; `N#Cc1ccc(CNCc2c(-c3ccccc3)ccc3cncn23)cc1` [Compound 42, 4-((((6-phenylimidazo[1,5-a]pyridin-5-yl)methyl)amino)methyl)benzonitrile]: below 250 nM. Next, `N#Cc1ccc(N(O)C(=O)Cc2c(-c3ccccc3)ccc3cncn23)cc1` [Compound 45, N-(4-cyanophenyl)-N-hydroxy-2-(6-phenylimidazo[1,5-a]pyridin-5-yl)acetamide]: below 250 nM; `O=C(Cc1c(-c2ccccc2)ccc2cncn12)Nc1ccc(C(=O)N2CCOCC2)cc1` [Compound 47, N-(4-(morpholine-4-carbonyl)phenyl)-2-(6-phenylimidazo[1,5-a]pyridin-5-yl)acetamide]: below 250 nM. As to `COC1CCN(C(=O)c2ccc(NC(=O)Cc3c(-c4ccccc4)ccc4cncn34)cc2)CC1` [Compound 48, N-(4-(4-methoxypiperidine-1-carbonyl)phenyl)-2-(6-phenylimidazo[1,5-a]pyridin-5-yl)acetamide], the IC50 was below 250 nM. Turning to `COCCn1cc(-c2ccc(NC(=O)Cc3c(-c4ccccc4)ccc4cncn34)cc2)cn1` [Compound 52, N-(4-(1-(2-methoxyethyl)-1H-pyrazol-4-yl)phenyl)-2-(6-phenylimidazo[1,5-a]pyridin-5-yl)acetamide], the IC50 is below 250 nM. Next, `CN(Cc1ccc(C#N)cc1)Cc1c(-c2ccccc2)ccc2cncn12` [Compound 55, 4-((methyl((6-phenylimidazo[1,5-a]pyridin-5-yl)methyl)amino)methyl)benzonitrile]: 250 to 1500 nM; `c1ccc(CNCc2c(-c3ccccc3)ccc3cncn23)cc1` [Compound 58, N-benzyl-1-(6-phenylimidazo[1,5-a]pyridin-5-yl)methanamine]: 250 to 1500 nM; `c1ccc(-c2ccc3cncn3c2CNCC2CCCCC2)cc1` [Compound 59, 1-cyclohexyl-N-((6-phenylimidazo[1,5-a]pyridin-5-yl)methyl)methanamine]: 250 to 1500 nM. With `CC(C)CNCc1c(-c2ccccc2)ccc2cncn12` [Compound 61, 2-methyl-N-((6-phenylimidazo[1,5-a]pyridin-5-yl)methyl)propan-1-amine], the IC50 lay within 250 to 1500 nM. Next, `CC(C)(O)CNCc1c(-c2ccccc2)ccc2cncn12` [Compound 62, 2-methyl-1-(((6-phenylimidazo[1,5-a]pyridin-5-yl)methyl)amino)propan-2-ol]: below 250 nM.

With `N#Cc1ccc(NC(=O)Cc2cc(Cl)cc3[nH]ncc23)cc1` [Compound 63, 2-(6-chloro-1H-indazol-4-yl)-N-(4-cyanophenyl)acetamide], the IC50 was in the range of 250 to 1500 nM.
